Reference: publication PMC9123270 (The Journal of Biological Chemistry, 2022)

Tests used:
Experiment in all cases: Isothermal titration calorimetry
Type in all cases: binding
Settings in all cases: SD, n = 3
[1] = target: T1, AngaD7L2 (Anopheles gambiae, UniProt A0A1S4GYJ6)
T1 sequence (A0A1S4GYJ6 19-315): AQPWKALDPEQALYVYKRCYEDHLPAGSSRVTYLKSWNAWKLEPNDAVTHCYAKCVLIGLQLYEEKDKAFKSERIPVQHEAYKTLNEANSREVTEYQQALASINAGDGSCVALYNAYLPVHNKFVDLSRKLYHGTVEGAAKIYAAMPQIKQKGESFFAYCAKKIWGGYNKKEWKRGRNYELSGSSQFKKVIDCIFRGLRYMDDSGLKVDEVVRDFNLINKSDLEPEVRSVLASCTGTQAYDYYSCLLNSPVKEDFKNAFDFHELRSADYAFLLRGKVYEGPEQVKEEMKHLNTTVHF

[2] = target: T2, AngaD7L1 (Anopheles gambiae, UniProt Q7PJ76)
T2 sequence (Q7PJ76 22-311): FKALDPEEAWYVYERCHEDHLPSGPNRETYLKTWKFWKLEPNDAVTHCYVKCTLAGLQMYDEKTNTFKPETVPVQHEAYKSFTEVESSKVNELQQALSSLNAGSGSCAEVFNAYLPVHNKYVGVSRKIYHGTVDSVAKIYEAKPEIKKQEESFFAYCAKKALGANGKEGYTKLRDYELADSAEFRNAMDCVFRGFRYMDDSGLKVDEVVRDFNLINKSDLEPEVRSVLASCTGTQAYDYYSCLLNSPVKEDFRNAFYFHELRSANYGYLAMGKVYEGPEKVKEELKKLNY

[3] = target: AngaD7L3 (Anopheles gambiae, UniProt A0A1S4HE90)
Sequence of AngaD7L3 (A0A1S4HE90 27-354): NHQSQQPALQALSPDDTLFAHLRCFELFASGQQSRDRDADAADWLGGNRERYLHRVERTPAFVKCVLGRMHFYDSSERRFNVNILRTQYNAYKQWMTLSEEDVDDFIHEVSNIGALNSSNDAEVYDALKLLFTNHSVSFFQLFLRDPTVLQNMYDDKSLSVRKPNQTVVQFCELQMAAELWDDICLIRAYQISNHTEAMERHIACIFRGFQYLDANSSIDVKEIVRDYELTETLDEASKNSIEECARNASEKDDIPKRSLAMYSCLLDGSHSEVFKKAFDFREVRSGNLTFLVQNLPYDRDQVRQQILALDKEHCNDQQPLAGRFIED

CCCCC/C=C\C[C@@H](O)/C=C/C=C/C=C\[C@@H](O)CCCC(=O)O [LTB4, leukotriene B4]
Kd [1]: 800 nM

CCCCC/C=C\C\C=C/C=C/C=C/[C@@H](SC[C@H](NC(=O)CC[C@H](N)C(=O)O)C(=O)NCC(=O)O)[C@@H](O)CCCC(=O)O [LTC4, leukotriene C4]
Kd [2]: 2000 nM

CCCCC/C=C\C\C=C/C=C/C=C/[C@@H](SC[C@H](N)C(=O)NCC(=O)O)[C@@H](O)CCCC(=O)O [LTD4, leukotriene D4]
Kd [1]: 1000 nM

NCCc1c[nH]c2ccc(O)cc12 [Serotonin, 5-hydroxytryptamine (5-HT)]
Kd [3]: 20 nM

CCCCC[C@H](O)/C=C/[C@@H]1[C@@H](C/C=C\CCCC(=O)O)[C@H]2CO[C@@H]1C2 [U-46619, 9,11-dideoxy-9alpha,11alpha-methanoepoxyprostaglandin F2alpha (thromboxane A2 analog)]
Kd [2]: 400 nM
